Data from paper PMC8464850, “Sulfonium Ligands of the α7 nAChR” (Molecules, 2021).
Counter-ions that a name gives are not always drawn.

Key:
Format in all cases: cell-based
α3β4 nAChR = molecular target: T1, α3β4 nAChR (Homo sapiens, UniProt P30926+P32297); assay: Inhibition of α3β4 100 µM ACh-evoked peak currents; conditions: co-application with 100 µM ACh, peak currents
T1 construct: expressed in transfected cells; host or cells: Xenopus laevis oocytes (injected RNA)
Description: Although none of the other sulfonium compounds activated neuronal heteromeric receptors, several of them produced inhibition of ACh-evoked responses. Shown in Figure 7A are concentration-response studies for the compounds that were active antagonists of α3β4 nAChR (Table 3). Some compounds were also tested as antagonists of α4β2 subtypes formed with concatamers (Figure 7B).
Figure 7 Inhibition of heteromeric nAChR by sulfonium compounds. (A) Inhibition of α3β4 100 µM ACh-evoked peak currents by the co-application of the sulfonium compounds. Data are the averaged of six to eight oocytes (±SEM). To confirm the stability of the ACh responses, applications of ACh plus the sulfonium compounds were alternated with applications of ACh alone. (B) Inhibition of ACh control peak-current responses of α4-containing nAChR formed with concatamers by 100 µM of the sulfonium compounds indicated. Data are the average of six to eight oocytes (±SEM).
Experiments were conducted using OpusXpress 6000A (Molecular Devices, Union City, CA, USA). Both the voltage and current electrodes were filled with 3 M KCl. Oocytes were voltage-clamped at −60 mV at room temperature (24 °C). The oocytes were bath-perfused with Ringer’s solution (115 mM NaCl, 2.5 mM KCl, 1.8 mM CaCl2, 10 mM HEPES, and 1 μM atropine, pH 7.2) at 2 mL/min for α7 receptors, or 4 mL/min for heteromeric nAChR. To evaluate the effects of experimental compounds, responses were compared to control ACh-evoked responses, defined as the average of two initial applications of ACh made before test applications. ACh control concentrations were 60 µM for α7 receptors; 100 µM for α4(3)β2(2) and α3β4 receptors; 30 µM for α4β2α6β2β3 and muscle-type (αβ1εδ) receptors; and 10 µM for α4(3)β2(2) and α4(2)β2(2)α5 receptors.
Solutions were applied from 96-well plates via disposable tips. Drug applications were 12 s in duration, followed by 181 s washout periods for α7 receptors, or 6 s in duration followed by 301 s washout periods for heteromeric nAChR. The responses were calculated as both peak current amplitudes and net charge, as previously described. Data were collected at 50 Hz, filtered at 20 Hz for α7 receptors or filtered at 5 Hz for heteromeric nAChR, and analyzed by Clampfit (Molecular Devices, San Jose, CA, USA) and Excel (Microsoft, Redmond, WA, USA). Data were expressed as means ± SEM from at least four oocytes for each experiment and plotted with Kaleidagraph 4.5.2 (Abelbeck Software, Reading, PA, USA). Multi-cell averages were calculated for comparisons of complex responses. Averages of the normalized data were calculated for each of the 10,322 points in each of the 206.44 s traces (acquired at 50 Hz), as well as the standard errors for those averages.

α4(3)β2(2) = molecular target: T2, α4(3)β2(2) (Homo sapiens, UniProt P17787+P43681); assay: Activation of heteromeric nAChR by S1: α4(3)β2(2)
T2 construct: expressed in transfected cells; host or cells: Xenopus laevis oocytes (injected RNA)
Text: (§1) Concatamers were used in order to obtain heteromeric receptors with known subunit composition. The β2-6-α4 concatamer was co-expressed with monomeric α4, β2, or α5 to obtain receptors with the composition α4(3)β2(2), α4(2)β2(3), or α4(2)β2(2)α5, respectively. A concatamer of five linked subunits was used to obtain the β3α4 β2α6β2 receptors. The α3β4 receptors were formed from the co-expression of α3 and β4 subunit monomers at equal ratios. Note that the data were initially measured relative to internal ACh control responses for each oocyte (Methods). Responses were subsequently adjusted for the relative values of the ACh controls and the ACh maximum responses for each of the various subtypes, determined in previous experiments.
(§2) Figure 6 Activation of heteromeric neuronal nAChR by S1. […] Data are the average peak currents (n = 6–8 oocytes ± SEM), measured relative to initial ACh control responses for each oocyte (concentrations listed in Methods). Responses were subsequently adjusted for the relative values of the ACh controls and the ACh maximum responses for each of the various subtypes, determined in previous experiments. […]
(§3) Solutions were applied from 96-well plates via disposable tips. […] The responses were calculated as both peak current amplitudes and net charge, as previously described. […] Multi-cell averages were calculated for comparisons of complex responses. […]

α3β4 = molecular target: T3, α3β4 (Homo sapiens, UniProt P30926+P32297); assay: Activation of heteromeric nAChR by S1: α3β4
T3 construct: expressed in transfected cells; host or cells: Xenopus laevis oocytes (injected RNA)
Text: as §1, §2, §3

[1] = peak currents relative to ACh maximum

T2 sequence (P17787 26-502): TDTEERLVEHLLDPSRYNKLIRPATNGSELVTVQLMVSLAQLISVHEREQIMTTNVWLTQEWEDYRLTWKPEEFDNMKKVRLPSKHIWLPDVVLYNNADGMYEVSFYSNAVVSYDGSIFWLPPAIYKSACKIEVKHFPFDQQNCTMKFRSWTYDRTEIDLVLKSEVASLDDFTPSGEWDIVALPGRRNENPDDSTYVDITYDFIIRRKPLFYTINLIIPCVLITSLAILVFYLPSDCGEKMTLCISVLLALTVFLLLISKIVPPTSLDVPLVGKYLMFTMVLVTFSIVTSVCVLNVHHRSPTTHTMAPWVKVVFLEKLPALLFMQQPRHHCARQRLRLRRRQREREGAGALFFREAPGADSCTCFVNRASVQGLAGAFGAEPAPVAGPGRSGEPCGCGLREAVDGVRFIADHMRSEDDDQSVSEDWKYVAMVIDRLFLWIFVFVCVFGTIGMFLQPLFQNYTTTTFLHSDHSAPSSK
T2 sequence (P43681 29-627 limits assumed): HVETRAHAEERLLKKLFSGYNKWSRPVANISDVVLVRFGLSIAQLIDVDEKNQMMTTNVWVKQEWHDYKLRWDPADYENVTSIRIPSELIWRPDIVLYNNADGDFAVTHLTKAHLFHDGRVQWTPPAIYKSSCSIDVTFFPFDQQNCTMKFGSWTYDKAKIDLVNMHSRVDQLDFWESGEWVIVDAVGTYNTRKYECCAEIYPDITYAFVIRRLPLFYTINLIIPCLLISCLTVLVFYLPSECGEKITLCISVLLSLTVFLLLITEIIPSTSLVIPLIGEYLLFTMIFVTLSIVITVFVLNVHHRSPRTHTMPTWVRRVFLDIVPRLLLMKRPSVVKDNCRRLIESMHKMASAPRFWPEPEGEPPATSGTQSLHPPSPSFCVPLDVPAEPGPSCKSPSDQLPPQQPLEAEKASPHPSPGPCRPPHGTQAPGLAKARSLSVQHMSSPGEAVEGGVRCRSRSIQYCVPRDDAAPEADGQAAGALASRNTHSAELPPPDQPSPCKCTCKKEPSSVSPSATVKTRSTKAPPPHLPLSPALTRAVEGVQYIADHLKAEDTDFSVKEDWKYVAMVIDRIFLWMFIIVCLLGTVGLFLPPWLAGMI
T2 sequence (P43681 29-627 limits assumed): as above
T3 sequence (P32297 32-505): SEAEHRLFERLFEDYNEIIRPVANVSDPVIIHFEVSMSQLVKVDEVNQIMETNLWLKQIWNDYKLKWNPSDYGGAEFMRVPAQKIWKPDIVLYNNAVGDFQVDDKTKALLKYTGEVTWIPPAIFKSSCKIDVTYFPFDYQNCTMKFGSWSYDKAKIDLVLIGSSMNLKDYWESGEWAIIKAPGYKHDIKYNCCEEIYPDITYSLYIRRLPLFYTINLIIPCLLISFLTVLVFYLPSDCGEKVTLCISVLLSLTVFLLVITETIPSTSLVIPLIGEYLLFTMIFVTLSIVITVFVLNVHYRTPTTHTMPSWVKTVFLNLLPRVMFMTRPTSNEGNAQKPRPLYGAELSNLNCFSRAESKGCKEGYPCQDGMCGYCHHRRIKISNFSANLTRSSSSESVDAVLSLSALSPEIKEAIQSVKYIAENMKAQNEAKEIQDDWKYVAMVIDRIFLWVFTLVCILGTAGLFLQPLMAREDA
T3 sequence (P30926 22-498): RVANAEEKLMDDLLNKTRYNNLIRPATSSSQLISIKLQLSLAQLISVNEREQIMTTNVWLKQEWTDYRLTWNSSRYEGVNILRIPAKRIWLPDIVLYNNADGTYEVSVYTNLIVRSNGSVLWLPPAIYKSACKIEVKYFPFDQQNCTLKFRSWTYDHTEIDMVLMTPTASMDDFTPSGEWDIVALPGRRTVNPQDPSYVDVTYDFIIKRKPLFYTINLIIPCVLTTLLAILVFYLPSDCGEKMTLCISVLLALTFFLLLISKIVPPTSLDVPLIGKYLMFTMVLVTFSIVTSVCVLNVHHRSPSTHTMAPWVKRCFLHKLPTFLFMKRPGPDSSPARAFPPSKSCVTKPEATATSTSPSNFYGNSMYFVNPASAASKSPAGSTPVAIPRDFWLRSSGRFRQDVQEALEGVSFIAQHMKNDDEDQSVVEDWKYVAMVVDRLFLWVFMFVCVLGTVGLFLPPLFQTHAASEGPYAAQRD
T1 sequence (P32297 32-505): as the sequence (P32297 32-505) above
T1 sequence (P30926 22-498): as the sequence (P30926 22-498) above

SMILES	IC50 (α3β4 nAChR) [µM]	IMax (S1 Activation) (α4(3)β2(2); [1])	EC50 (α4(3)β2(2); peak currents, unit inferred) [µM]	IMax (S1 Activation) (α3β4; [1])	EC50 (α3β4; peak currents, unit inferred) [µM]
C[S+](C)c1ccc(O)cc1 [Compound S9, (4-hydroxyphenyl)dimethylsulfonium methyl sulfate]	124 ± 22	–	–	–	–
C[S+](C)C.[I-] [Compound S1, trimethylsulfonium iodide]	–	1.2 ± 0.2	246 ± 104	1.18 ± 0.01	1420 ± 19.4
